What was measured:
Conditions in all cases: 72 h
MDA-MB-468 [1] = tested on: MDA-MB-468
In short: (§1)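 The plates used were 384-well plates holding compound at 5 concentrations in 10-fold steps across a compound-specific 10,000-fold range, into which breast cancer cell lines were seeded in 20 µl suspension. Following 72 h incubation, CellTox Green fluorescence was read at 485/520 nm, and CellTiter-Glo luminescence was read after 10 min at room temperature. Normalisation on each plate used 0.1 % DMSO and a positive kill control. Dose-response curves gave the EC50, which was censored at the top concentration.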

MDA-MB-436 = tested on: MDA-MB-436
In short: as §1

HCC1937 [2] = tested on: HCC1937
In short: as §1

MDA-MB-231 [3] = tested on: MDA-MB-231
In short: as §1

MDA-MB-453 [4] = tested on: MDA-MB-453
In short: as §1

CAL-120 = tested on: CAL-120
In short: as §1

HCC1937 [5] = tested on: HCC1937; remark: listed apart in the source
In short: as §1

CAL-85-1 = tested on: CAL-85-1
In short: as §1

MDA-MB-453 [6] = tested on: MDA-MB-453; remark: listed apart in the source
In short: as §1

CAL-148 [7] = tested on: CAL-148
In short: as §1

CAL-51 = tested on: CAL-51
In short: as §1

HCC1143 = tested on: HCC1143
In short: as §1

BT-474 [8] = tested on: BT-474
In short: as §1

MFM-223 = tested on: MFM-223
In short: as §1

HDQ-P1 [9] = tested on: HDQ-P1
In short: as §1

BT-549 = tested on: BT-549
In short: as §1

CAL-148 [10] = tested on: CAL-148; remark: listed apart in the source
In short: as §1

HDQ-P1 [11] = tested on: HDQ-P1; remark: listed apart in the source
In short: as §1

HCC1599 [12] = tested on: HCC1599
In short: as §1

Hs578T [13] = tested on: Hs578T
In short: as §1

MCF-10A = tested on: MCF-10A
In short: as §1

MDA-MB-468 [14] = tested on: MDA-MB-468; remark: listed apart in the source
In short: (§2)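 EC50 is the value from a fitted percent-inhibition dose-response curve, censored at the highest concentration, and rows with zero drug sensitivity score were not kept. The underlying assay seeded breast cancer cell lines in 20 µl onto 384-well plates pre-loaded with compound in 5 µl medium for 72 h. Viability was then read by CellTiter-Blue fluorescence at 560/590 nm after 2 h at 37 °C, with each plate normalised to vehicle and a positive kill control.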

Hs578T [15] = tested on: Hs578T; remark: listed apart in the source
In short: as §2

HCC1937 [16] = tested on: HCC1937; remark: listed apart in the source
In short: as §2

MDA-MB-231 [17] = tested on: MDA-MB-231; remark: listed apart in the source
In short: as §2

SK-BR-3 = tested on: SK-BR-3
In short: as §2

BT-474 [18] = tested on: BT-474; remark: listed apart in the source
In short: as §2

DU-4475 = tested on: DU-4475
In short: as §1

HCC1599 [19] = tested on: HCC1599; remark: listed apart in the source
In short: as §1

SMILES | EC50, CellTox Green (MDA-MB-468 [1]) [nM] | EC50, CellTox Green (MDA-MB-436) [nM] | EC50, CellTox Green (HCC1937 [2]) [nM] | EC50, CellTox Green (MDA-MB-231 [3]) [nM] | EC50, CellTox Green (MDA-MB-453 [4]) [nM] | EC50, CellTox Green (CAL-120) [nM] | EC50, CellTiter-Glo (HCC1937 [5]) [nM] | EC50, CellTiter-Glo (CAL-85-1) [nM] | EC50, CellTiter-Glo (MDA-MB-453 [6]) [nM] | EC50, CellTox Green (CAL-148 [7]) [nM] | EC50, CellTox Green (CAL-51) [nM] | EC50, CellTox Green (HCC1143) [nM] | EC50, CellTox Green (BT-474 [8]) [nM] | EC50, CellTox Green (MFM-223) [nM] | EC50, CellTox Green (HDQ-P1 [9]) [nM] | EC50, CellTox Green (BT-549) [nM] | EC50, CellTiter-Glo (CAL-148 [10]) [nM] | EC50, CellTiter-Glo (HDQ-P1 [11]) [nM] | EC50, CellTiter-Glo (HCC1599 [12]) [nM] | EC50, CellTox Green (Hs578T [13]) [nM] | EC50, CellTox Green (MCF-10A) [nM] | EC50, CellTiter-Blue viability (MDA-MB-468 [14]) [nM] | EC50, CellTiter-Blue viability (Hs578T [15]) [nM] | EC50, CellTiter-Blue viability (HCC1937 [16]) [nM] | EC50, CellTiter-Blue viability (MDA-MB-231 [17]) [nM] | EC50, CellTiter-Blue viability (SK-BR-3) [nM] | EC50, CellTiter-Blue viability (BT-474 [18]) [nM] | EC50, CellTox Green (DU-4475) [nM] | EC50, CellTox Green (HCC1599 [19]) [nM]
CC/C(=C(\c1ccc(O)cc1)c1ccc(OCCN(C)C)cc1)c1ccccc1 [4-hydroxytamoxifen] | 92.3 | 2800 | 1930 | 4260 | 9550 | 9170 | 5190 | 3340 | 6910 |  |  |  |  |  |  |  |  |  |  |  |  |  |  |  |  |  |  |  | 
CC(=O)OC[C@H]1O[C@@H]([S-])[C@H](OC(C)=O)[C@@H](OC(C)=O)[C@@H]1OC(C)=O.CCP(CC)CC.[Au+] [Auranofin] | 412 |  | 926 | 1330 | 1590 | > 2500 | 552 | 723 | 612 | 2060 | 186 | > 2500 | 646 | 958 | 694 | 712 | 2190 | 1120 | 2110 |  |  |  |  |  |  |  |  |  | 
CO[C@@H](C(=O)N1Cc2[nH]nc(NC(=O)c3ccc(N4CCN(C)CC4)cc3)c2C1)c1ccccc1 [Danusertib] | 10.2 | 216 |  |  |  | 5630 |  |  |  |  | 348 |  |  |  | 6850 | > 10000 | 448 | 7430 |  | 477 | > 10000 | 71.9 | 1040 | 344 | 1180 |  |  |  | 
Cc1nc(Nc2ncc(C(=O)Nc3c(C)cccc3Cl)s2)cc(N2CCN(CCO)CC2)n1 [Dasatinib] |  |  |  | 515 |  |  | 54.7 | 79.4 |  |  | 10.3 |  |  |  |  | 162 |  | 18.3 |  | 277 | 599 |  | 49.7 |  | 16.8 |  |  |  | 
Cc1c(CN2CCN(C(=O)[C@H](C)O)CC2)sc2c(N3CCOCC3)nc(-c3cnc(N)nc3)nc12 [GDC-0980] |  |  |  |  |  |  | 3130 | 628 | 226 | 820 | 2320 | 1460 | 1390 | 1000 | 8340 |  | 701 | 452 | 1340 |  |  | 704 | 257 | 214 | 90.4 | 81.8 | 318 |  | 
CS(=O)(=O)N1CCN(Cc2cc3nc(-c4cccc5[nH]ncc45)nc(N4CCOCC4)c3s2)CC1 [Pictilisib] |  |  |  |  |  |  | 3840 | 997 | 508 | 293 | 2090 |  | 9300 | 955 |  |  | 1350 | 657 |  |  | 270 |  |  |  |  |  |  |  | 
O=C(NC[C@H](O)CO)c1ccncc1Nc1ccc(I)cc1F [Pimasertib] |  |  |  | 16.6 |  | 783 | 3070 | 1090 |  |  |  |  | 2840 |  |  |  | 1010 | 18.6 |  |  |  |  |  |  |  |  |  | 48.1 | 
Cn1cc(CNCC2CCN(c3ncc(C(=O)NO)cn3)CC2)c2ccccc21 [Quisinostat] | 5.87 |  |  | 72.5 | > 1000 | 65.6 | 199 | 34.1 | 11 | 52.1 | 116 | 134 | 36 | 58.8 | 396 |  | 28.3 | 148 | 71.3 | 60.3 |  |  |  |  |  |  |  | 95.6 | 106
CC[C@@]1(O)C(=O)OCc2c1cc1n(c2=O)Cc2cc3c(CN(C)C)c(O)ccc3nc2-1 [Topotecan] | 2240 | 2720 | 3070 | 369 |  | 2570 | 2740 | 755 | 1830 | 55.6 | 195 |  | > 10000 |  | > 10000 |  | 221 |  | 189 |  | 1880 | 71.9 |  | 30.3 | 612 | 52 |  |  | 748

Reference: the supplement of paper PMC4862054
